Data: article PMC10489073 (Molecules, 2023)

Columns and labels:
CD13 from Porcine Kidney = target: T1, CD13 from Porcine Kidney (Sus scrofa, UniProt P15145); assay: CD13 inhibition assay (porcine aminopeptidase, L-leucine-p-nitroanilide); format: biochemical; details: mean ± SD, n ≥ 3; read-out: IC50 toward CD13 from Porcine Kidney
T1 construct: purchased Sigma Chemical Co., St. Louis, MO, USA
Procedure: (§1) L-leucine-p-nitroanilide can be degraded by recombinant human aminopeptidase (R&D systems) or procine aminopeptidase (Sigma Chemical Co., St. Louis, MO, USA) and produce light absorption at 405 nm. The CD13 inhibitory activity of synthetic compounds was identified according to the degree of degradation of L-leucine-p-nitroanilide. L-leucine-p-nitroanilide was dissolved in DMSO and mixed with tested compounds in a transparent 96-well plate; then, aminopeptidase was added using phosphate solution (pH 7.2) as the assay buffer. After incubation at 37 °C for 30 min, the absorption was detected under a 405 nm wavelength via Tecan Spark multimode microplate.

Human CD13 = target: T2, Human CD13 (Homo sapiens, UniProt P15144); assay: CD13 inhibition assay (recombinant human aminopeptidase, L-leucine-p-nitroanilide); format: biochemical; details: mean ± SD, n ≥ 3; read-out: IC50 toward Human CD13
T2 construct: purchased R&D systems
Procedure: as §1

[1] = target: T3, chymotrypsin-like (CT-L) activity of the 20S proteasome (Homo sapiens, UniProt P20618+P28074); assay: 20S proteasome inhibition assay (Proteasome-Glo Chymotrypsin-Like); format: biochemical; details: n ≥ 3, SD <20% of the mean, read-out: IC50 toward Chymotrypsin-like (CT-L)
T3 construct: purchased R&D systems, Minneapolis, MN, USA
Procedure: The 20S proteasome inhibition assay was performed using the Proteasome-Glo™ Chymotrypsin-Like Assay kit (Promega, Alexandria, NSW, Australia). Suc-LLVY-aminoluciferin is a substate that can be cleaved by the 20S proteasome, release the […] (aminoluciferin) and allow the luciferase reaction to produce light. Gradient concentration of tested compounds and the purified 20S proteasome enzyme (R&D systems, Minneapolis, MN, USA) were successively added into a transparent 96-well plate and mixed thoroughly. Then, 50 µL of a […] reagent was added. Gently mix contents with a plate shaker at 300 to 500 rpm for 30 s. Incubate at room temperature for an hour. The luminescence was recorded via the Tecan Spark multimode microplate.

HEK293 = assay: Cell proliferation analysis (MTT), normal cells; format: cell-based; details: Homo sapiens, non-malignant cell line, 48 h, read-out: Anti-proliferative activity IC50, HEK293
Procedure: (§2) All tumor cell lines in the current research were grown in a certain growth medium containing 10% FBS and 1% (v/v/v) penicillin–streptomycin–amphotericin at 37 °C in 5% CO2. Cells were seeded into 96-well plates at a density of 8 × 10^3 cells per well for tumor adherent cells and 2 × 10^4 cells per well for tumor-suspended cells in a final volume of 100 μL. After 12 h, 100 μL of various concentrations of compounds was added to each and incubated for 48 h. A 0.5% MTT solution was added per well before the intermixture was incubated for another 4 h, and formazan formed from MTT was extracted by adding […] of DMSO rocking for 15 min. Absorbance was measured at 570 nm using a Spark multimode microplate from Tecan. The IC50 values were calculated according to the inhibition ratios.

HL-7702 = assay: Cell proliferation analysis (MTT), normal cells; format: cell-based; details: Homo sapiens, L02, non-malignant cell line, 48 h, read-out: Anti-proliferative activity IC50, HL-7702
Procedure: as §2

MM1.S cells = assay: Cell cycle assay (PI flow cytometry); format: cell-based; details: MM1.S, 1, 2 and 4 µM, 48 h
Procedure: For the cell cycle assay, MM1.S cells were plated in 6-well plates with a density of 2.5 × 10^6 cells per well. A total of 12 h later, BC-05 (1, 2, and 4 μM), ixazomib (10 nM), or a vehicle (0.5% DMSO) was added, and the mixture was incubated for 48 h. Subsequently, cells were harvested, washed with cold PBS, and fixed in 75% cold ethanol at −20 °C overnight. After washing off the ethanol, fixed cells were treated with RNase A, dyed with propidium iodide solution (20 μg/mL), and incubated in the dark at 37 °C for 30 min. The final assay was analyzed using a Beckman flow cytometer.

[2] = tested on: cleaved caspase-3 in MM1.S cells; assay: Western blot analysis, caspase-3 cleavage; format: cell-based; details: MM1.S, 1, 2 and 4 µM, 24 h
Procedure: MM1.S cells were seeded in 6-well plates with a density of 2.5 × 10^6 cells/well. Then, the cells were cultured with 1, 2, and 4 μM BC-05 and 10 nM ixazomib, respectively. After incubation for 24 h, the cells were collected, and total proteins were extracted via RIPA containing a 2% protease inhibitor cocktail. Cell lysates were centrifugated at 4 °C, 12,000 rpm for 15 min, and the supernatants were collected and quantified with BCA assay. After being boiled at 100 °C for 10 min in a NuPAGE lithium dodecyl sulfate (LDS) sample buffer (5X), equivalent samples were separated by 12% sodium dodecyl-sulfate polyacrylamide gel electrophoresis at 120 V, transferred to immune-blot poly(vinylidene fluoride) (PVDF) membranes (Merck Millipore, Burlington, MA, USA) at 4 °C and then blocked by 5% non-fat milk in TBST for an hour. The membranes were incubated overnight at 4 °C with certain primary antibodies, which were deliquates by an antibody dilution buffer (Boster Bio, Pleasanton, CA, USA) and then washed with TBST. After incubating with a horseradish (HRP)-conjugated secondary antibody for 1 h at room temperature, the membranes were washed five times with TBST for 5 min. The images were visualized on the Tanon-5200 Chemiluminescent Imaging System via luminol reaction. […]

B16F10 cells = assay: Survival time in mice bearing B16F10 cells; format: in vivo, C57BL/6 mice; details: for median survival time (MST): twice a week for two weeks, vehicle group 16 days
Procedure: The animal experiments were conducted under the guidelines of the “Regulations for the Administration of Affairs Concerning Experimental Animals” (revised 2017, State Council No. 676). Female C57/B6 mice at 5 to 6 weeks were implanted via intraperitoneal (ip) injection with 5.0 × 10^6 B16F10 cells per individual and randomly assigned into control groups and treatment groups. Seven days after inoculation, mice from the control group were treated orally with DMSO in a vehicle, whereas the compound group mice were treated with specified concentrations of compounds by oral administration twice a week for two weeks. The survival percentage of the mice in each group was recorded and plotted. The anti-tumor activity of the drug was evaluated by measuring the median survival time (MST) for each group.

T1 sequence (P15145 whole entry): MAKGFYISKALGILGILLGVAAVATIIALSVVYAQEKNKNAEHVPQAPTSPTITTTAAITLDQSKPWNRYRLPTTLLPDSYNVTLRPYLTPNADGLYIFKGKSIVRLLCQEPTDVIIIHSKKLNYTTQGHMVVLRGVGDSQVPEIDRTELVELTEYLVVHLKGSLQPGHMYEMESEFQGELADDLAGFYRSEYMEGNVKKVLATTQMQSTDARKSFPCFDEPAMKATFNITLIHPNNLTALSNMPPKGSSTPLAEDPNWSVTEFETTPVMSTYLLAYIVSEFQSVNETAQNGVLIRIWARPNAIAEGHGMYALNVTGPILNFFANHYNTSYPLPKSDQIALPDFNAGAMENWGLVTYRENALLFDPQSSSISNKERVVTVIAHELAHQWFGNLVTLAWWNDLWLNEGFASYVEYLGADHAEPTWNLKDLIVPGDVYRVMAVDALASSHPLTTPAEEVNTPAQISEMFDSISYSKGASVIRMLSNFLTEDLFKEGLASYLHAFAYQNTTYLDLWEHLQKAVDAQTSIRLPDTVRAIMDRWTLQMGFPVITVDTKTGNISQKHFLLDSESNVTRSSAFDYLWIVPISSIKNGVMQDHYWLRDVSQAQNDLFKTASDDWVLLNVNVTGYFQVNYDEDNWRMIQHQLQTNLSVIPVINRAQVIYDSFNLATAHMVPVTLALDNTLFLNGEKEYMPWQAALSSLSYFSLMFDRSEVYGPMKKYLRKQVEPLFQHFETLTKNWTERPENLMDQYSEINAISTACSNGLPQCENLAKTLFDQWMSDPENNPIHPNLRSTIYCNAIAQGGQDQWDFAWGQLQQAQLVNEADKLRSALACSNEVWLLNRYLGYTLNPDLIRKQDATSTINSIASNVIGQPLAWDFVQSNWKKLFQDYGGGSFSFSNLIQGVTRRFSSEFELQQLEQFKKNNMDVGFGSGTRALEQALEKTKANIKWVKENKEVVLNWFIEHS
T2 sequence (P15144 whole entry): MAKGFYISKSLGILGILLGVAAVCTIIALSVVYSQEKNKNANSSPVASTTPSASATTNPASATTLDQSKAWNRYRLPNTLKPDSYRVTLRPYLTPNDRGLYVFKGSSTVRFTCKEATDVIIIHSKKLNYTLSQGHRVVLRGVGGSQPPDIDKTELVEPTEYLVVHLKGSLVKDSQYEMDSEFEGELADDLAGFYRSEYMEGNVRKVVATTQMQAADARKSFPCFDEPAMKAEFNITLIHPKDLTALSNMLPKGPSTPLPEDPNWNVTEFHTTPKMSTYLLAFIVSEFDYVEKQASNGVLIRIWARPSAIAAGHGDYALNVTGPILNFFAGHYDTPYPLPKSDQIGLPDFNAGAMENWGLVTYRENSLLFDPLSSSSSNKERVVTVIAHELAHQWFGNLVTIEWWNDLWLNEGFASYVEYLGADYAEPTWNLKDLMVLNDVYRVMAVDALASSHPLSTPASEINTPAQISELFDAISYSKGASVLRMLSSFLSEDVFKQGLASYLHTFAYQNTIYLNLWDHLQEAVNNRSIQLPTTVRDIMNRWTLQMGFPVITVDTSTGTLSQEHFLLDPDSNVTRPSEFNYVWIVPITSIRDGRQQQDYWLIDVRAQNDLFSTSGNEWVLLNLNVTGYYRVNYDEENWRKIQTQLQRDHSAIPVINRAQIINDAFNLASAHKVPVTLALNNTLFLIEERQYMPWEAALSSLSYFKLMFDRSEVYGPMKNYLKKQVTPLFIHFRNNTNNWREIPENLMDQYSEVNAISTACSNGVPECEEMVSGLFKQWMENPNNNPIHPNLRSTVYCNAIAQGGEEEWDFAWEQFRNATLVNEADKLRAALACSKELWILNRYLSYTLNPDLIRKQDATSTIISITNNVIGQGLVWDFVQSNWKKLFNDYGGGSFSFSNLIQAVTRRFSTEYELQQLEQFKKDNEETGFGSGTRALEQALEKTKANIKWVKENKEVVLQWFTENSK

**Q.** What does the source list for `CC(C)C[C@H](NC(=O)[C@@H](O)[C@H](N)Cc1ccccc1)B1OC(=O)C(CC(=O)O)(CC(=O)O)O1` [BC-05, 2,2′-(2-((R)-1-((2S,3R)-3-amino-2-hydroxy-4-phenylbutanamido)-3-methylbutyl)-5-oxo-1,3,2-dioxaborolane-4,4-diyl)diacetic acid]?
**A.** IC50 (CD13 from Porcine Kidney): 650 ± 50 nM; IC50 (Human CD13): 130 ± 10 nM; IC50 [1]: 1390 nM; IC50 (HEK293): > 200000 nM; IC50 (HL-7702): > 200000 nM; cell cycle arrest (MM1.S cells): blocks MM1.S cells in the Sub-G1 phase; Caspase-3 cleavage (Western blot) [2]: obvious; MST increase compared to the vehicle group (B16F10 cells; 0.008 mmol/kg oral): 1.4 fold; median survival time (MST) (B16F10 cells; 0.008 mmol/kg oral): 22 days; MST increase compared to the vehicle group (B16F10 cells; 0.012 mmol/kg oral): 1.6 fold; median survival time (MST) (B16F10 cells; 0.012 mmol/kg oral): 25 days
